Assay results from publication PMC6259646, “Role of Intestinal Hydrolase in the Absorption of Prenylated Flavonoids Present in Yinyanghuo” (Molecules, 2011).

Assays:
[1] = system: rat intestine; experiment: four-site single-pass perfused rat intestinal model: effective permeability and metabolite formation; assay type: in vivo; details: for metabolites detected in the perfusate: HPLC; for identity of intestinal metabolite: rat intestinal perfusate, LC/MS/MS, loss of saccharide group at C7
Source text: Male Sprague-Dawley rats weighing between 250 and 300 g were obtained from the SLEK Lab Animal Center of Shanghai (Shanghai, China). The rats were fed with water and a standard diet. The rats were fasted overnight before the day of the experiment.
The surgical procedures were approved by the Animal Ethics Committee of Jiangsu Provincial Academy of Chinese Medicine. Anesthesia was induced by an i.m. injection of urethane (0.5 g/mL). After the rat was anesthetized, it was put over a heating blanket and under a heating lamp to keep its normal body temperature. We then cannulated four segments of the intestine, each with two cannulae. After each cannula was inserted, it was secured with a sterilized black suture before the next cannula was inserted and secured. First, the duodenum was located as the intestinal segment immediately adjacent to the stomach, and two cannulae at 10 cm apart were inserted into two ends of the duodenum and secured with suture. Next, the jejunum was located below the duodenum, and the first cannula was inserted at 4 cm below the duodenal outlet cannula, whereas the second cannula was inserted at 10 cm below the first jejunal cannula. Then, the terminal ileum was located by identifying the ileocecal junction of the rat intestine. The outlet cannula was inserted into the ileum at 2 cm above the junction, and the inlet cannula was inserted 10 cm above the outlet cannula. Lastly, the colon inlet cannula was inserted into the colon at 2 cm below the junction, and the outlet cannula was inserted through the anus. After cannulation, the small intestinal segments were placed carefully into the abdominal cavity, avoiding crimping or kinking of the segments. The incision was then covered by a normal saline-wetted paper towel. A piece of plastic wrap was put on the towel to keep the intestinal segments moist. Additionally, caution was also exercised to keep the inlet and outlet cannulate at the same height to avoid gravitational flow. To keep the temperature of the perfusate constant, the inlet cannulate was kept warm by a 37°C circulating water bath.
This is a single-pass perfusion method. Four segments of the intestine (duodenum, upper jejunum, terminal ileum, and colon) were perfused simultaneously with a perfusate containing the compound of interest using an infusion pump (Harvard Apparatus, Cambridge, MA, USA) at a flow rate of 0.2 mL/min. After a 30-min washout period, which is usually sufficient to achieve the steady-state absorption, four samples were collected from the outlet cannulae every 30 min afterward. After perfusion, the length of the intestine was measured as described previously The outlet concentrations of the test compounds in the luminal perfusate were determined by HPLC or LC/MS/MS.
The samples were separated on a Zorbax SB-C18 column (250 mm × 4.6 mm, 5 μm, Agilent). The mobile phase consisted of acetonitrile (A) and water containing 0.1% acetic acid (B). […] For MS analysis, the electro spray ionization (ESI) source was operated in the positive ion mode.
In the perfused rat intestinal model, Peff^* (effective permeability) is a representation of the intestinal membrane permeability. Peff^* of the compounds are calculated using the following equations: Peff^∗=1−Cm/Co/4Gz where Co and Cm are inlet and outlet concentrations, respectively; Gz, or Graetz number ( Gz=πDL/2Q ), is a scaling factor that incorporates flow rate (Q), intestinal length (L), and diffusion coefficients (D) to make the permeability dimensionless. Cm was adjusted for water flux, data points were discarded if the water flux exceeded 0.5%/cm of intestine.

[2] = system: lactase phlorizin hydrolase; experiment: co-perfusion with LPH inhibitor gluconolactone in perfused rat intestinal model: inhibition of hydrolysis; assay type: in vivo; details: 10 μM flavonoid co-perfused with gluconolactone (40μM)
Method: This is a single-pass perfusion method. […] After a 30-min washout period, which is usually sufficient to achieve the steady-state absorption, four samples were collected from the outlet cannulae every 30 min afterward. After perfusion, the length of the intestine was measured as described previously The outlet concentrations of the test compounds in the luminal perfusate were determined by HPLC or LC/MS/MS. […] The total gluconolactone concentration was 40μM. After perfusion, perfusates were collected and determined by HPLC. […] The accuracy and precision were greater than 98%.

Structure (SMILES) | metabolites detected in the perfusate [1] | identity of intestinal metabolite [1] | hydrolysis inhibition rate, colon [2] [%] | hydrolysis inhibition rate, duodenum [2] [%] | hydrolysis inhibition rate, ileum [2] [%] | hydrolysis inhibition rate, jejunum [2] [%]
COc1ccc(-c2oc3c(CC=C(C)C)c(OC4OC(CO)C(O)C(O)C4O)cc(O)c3c(=O)c2OC2OC(C)C(O)C(O)C2OC2OC(C)C(O)C(O)C2O)cc1 (stereo not shown) [epimedin C] | one metabolite | 2″-O-rhamnosylicariside II | 35 | 42 | 52 | 40
COc1ccc(-c2oc3c(CC=C(C)C)c(OC4OC(CO)C(O)C(O)C4O)cc(O)c3c(=O)c2OC2OC(C)C(O)C(O)C2OC2OC(CO)C(O)C(O)C2O)cc1 (stereo not shown) [epimedin A] | one metabolite | sagittatoside A | 14 | 55 | 21 | 26
COc1ccc(-c2oc3c(CC=C(C)C)c(O[C@@H]4O[C@H](CO)[C@@H](O)[C@H](O)[C@H]4O)cc(O)c3c(=O)c2O[C@@H]2O[C@@H](C)[C@H](O)[C@@H](O)[C@H]2O)cc1 [icariin] | two metabolites | baohuoside I | 46 | 62 | 40 | 50
COc1ccc(-c2oc3c(CC=C(C)C)c(OC4OC(CO)C(O)C(O)C4O)cc(O)c3c(=O)c2OC2OC(C)C(O)C(O)C2OC2OCC(O)C(O)C2O)cc1 (stereo not shown) [epimedin B] | one metabolite | sagittatoside B | 22 | 42 | 74 | 40
COc1ccc(-c2oc3c(CC=C(C)C)c(O)cc(O)c3c(=O)c2O[C@@H]2O[C@@H](C)[C@H](O)[C@@H](O)[C@H]2O)cc1 [baohuoside I] | no metabolites were detected |  |  |  |  | 
